The source of these data is ChEMBL document CHEMBL4004853, “Design, synthesis and biological evaluation of thienopyrimidine hydroxamic acid based derivatives as structurally novel histone deacetylase (HDAC) inhibitors” (Eur J Med Chem, 2017).

Assay [1] concerns HCT-116. Put plainly: Antiproliferative activity against human HCT116 cells after 72 hrs by CellTiter 96 AQueous Non-Radioactive assay. To be noted: HCT-116, 72 h. The assay is classed as functional, cell-based.
For assay [2], the target named is Histone deacetylase 3 (Homo sapiens, UniProt O15379). Briefly: Inhibition of full length recombinant human GST fused His6-tagged HDAC3 expressed in baculovirus infected High5 cells using Ac-Lys-Tyr-Lys(epsilon-acetyl)-AMC as substrate measured after 24 hrs.
For assay [3], the target named is T1, Histone deacetylase 1 (Homo sapiens, UniProt Q13547). Briefly: Inhibition of full length recombinant human GST fused His6-tagged HDAC1 expressed in baculovirus infected High5 cells using Ac-Lys-Tyr-Lys(epsilon-acetyl)-AMC as substrate measured after 24 hrs.
Assay [4] has as its target T2, Protein deacetylase HDAC6 (Homo sapiens, UniProt Q9UBN7).
T2 sequence (Q9UBN7 whole entry): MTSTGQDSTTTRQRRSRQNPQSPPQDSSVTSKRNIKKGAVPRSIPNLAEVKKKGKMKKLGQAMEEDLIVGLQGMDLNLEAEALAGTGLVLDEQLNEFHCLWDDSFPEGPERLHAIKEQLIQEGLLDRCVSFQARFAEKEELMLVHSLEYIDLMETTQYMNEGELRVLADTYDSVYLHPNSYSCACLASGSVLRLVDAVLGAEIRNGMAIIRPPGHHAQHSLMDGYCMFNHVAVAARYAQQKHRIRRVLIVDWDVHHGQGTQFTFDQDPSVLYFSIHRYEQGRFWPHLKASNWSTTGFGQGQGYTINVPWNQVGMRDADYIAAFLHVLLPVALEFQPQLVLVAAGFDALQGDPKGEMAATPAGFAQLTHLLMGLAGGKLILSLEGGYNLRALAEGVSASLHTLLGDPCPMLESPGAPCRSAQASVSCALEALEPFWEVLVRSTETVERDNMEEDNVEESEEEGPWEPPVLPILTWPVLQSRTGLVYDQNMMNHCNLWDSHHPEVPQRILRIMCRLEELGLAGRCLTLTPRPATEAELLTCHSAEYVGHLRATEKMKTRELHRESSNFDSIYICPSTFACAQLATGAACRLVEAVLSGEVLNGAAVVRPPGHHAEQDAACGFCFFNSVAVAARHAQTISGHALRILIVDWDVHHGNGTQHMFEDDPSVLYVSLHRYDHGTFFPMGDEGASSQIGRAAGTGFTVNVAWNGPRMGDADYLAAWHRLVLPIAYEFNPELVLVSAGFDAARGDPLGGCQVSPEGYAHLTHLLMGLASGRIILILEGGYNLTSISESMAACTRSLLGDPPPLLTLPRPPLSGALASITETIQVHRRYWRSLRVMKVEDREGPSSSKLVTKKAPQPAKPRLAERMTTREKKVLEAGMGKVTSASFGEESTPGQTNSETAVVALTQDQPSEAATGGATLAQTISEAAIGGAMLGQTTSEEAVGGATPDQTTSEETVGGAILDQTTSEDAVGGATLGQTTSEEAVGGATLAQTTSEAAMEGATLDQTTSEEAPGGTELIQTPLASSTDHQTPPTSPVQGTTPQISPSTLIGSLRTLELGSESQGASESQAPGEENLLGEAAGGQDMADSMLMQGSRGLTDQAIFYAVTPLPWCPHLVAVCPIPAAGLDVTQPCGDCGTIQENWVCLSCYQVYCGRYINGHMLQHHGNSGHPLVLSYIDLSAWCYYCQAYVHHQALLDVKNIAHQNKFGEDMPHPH
Briefly: Inhibition of full length recombinant human GST fused His6-tagged HDAC6 expressed in baculovirus infected High5 cells using Boc-Lys(epsilon-acetyl)-AMC as substrate measured after 3 hrs.

Assay [5] has as its system RPMI-8226. Put plainly: Antiproliferative activity against human RPMI8226 cells after 72 hrs by CellTiter 96 AQueous Non-Radioactive assay. To be noted: RPMI-8226, 72 h. Format: functional, cell-based.
The target of assay [6] is T1, Histone deacetylase 1. Briefly: Inhibition of HDAC1 in human RPMI8226 cells assessed as increase in histone H3 acetylation after 24 hrs by western blot analysis. The assay is classed as cell-based. Background: Immunoblotting shows a protein as a band on a membrane.
Assay [7] deals with T3, Protein deacetylase HDAC6 (Homo sapiens) (UniProt Q9UBN7).
T3 sequence (whole entry): T2 sequence (Q9UBN7 whole entry)
Briefly: Inhibition of HDAC6 in human RPMI8226 cells assessed as increase in tubulin acetylation after 24 hrs by western blot analysis. The assay is classed as cell-based.

Histone deacetylase 3, sequence (O15379 whole entry, the tested form may be a part): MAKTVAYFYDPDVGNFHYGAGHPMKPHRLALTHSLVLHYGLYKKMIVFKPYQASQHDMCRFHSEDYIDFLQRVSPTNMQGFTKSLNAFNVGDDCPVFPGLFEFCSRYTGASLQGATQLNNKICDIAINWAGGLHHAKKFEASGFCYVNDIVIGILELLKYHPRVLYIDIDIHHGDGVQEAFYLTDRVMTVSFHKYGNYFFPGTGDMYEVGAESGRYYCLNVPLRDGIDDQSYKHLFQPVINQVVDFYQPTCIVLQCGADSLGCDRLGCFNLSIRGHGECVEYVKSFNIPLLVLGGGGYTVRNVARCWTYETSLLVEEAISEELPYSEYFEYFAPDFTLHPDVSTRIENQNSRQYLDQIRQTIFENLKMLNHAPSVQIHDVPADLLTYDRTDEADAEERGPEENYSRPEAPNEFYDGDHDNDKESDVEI
T1 sequence (Q13547 whole entry, the tested form may be a part): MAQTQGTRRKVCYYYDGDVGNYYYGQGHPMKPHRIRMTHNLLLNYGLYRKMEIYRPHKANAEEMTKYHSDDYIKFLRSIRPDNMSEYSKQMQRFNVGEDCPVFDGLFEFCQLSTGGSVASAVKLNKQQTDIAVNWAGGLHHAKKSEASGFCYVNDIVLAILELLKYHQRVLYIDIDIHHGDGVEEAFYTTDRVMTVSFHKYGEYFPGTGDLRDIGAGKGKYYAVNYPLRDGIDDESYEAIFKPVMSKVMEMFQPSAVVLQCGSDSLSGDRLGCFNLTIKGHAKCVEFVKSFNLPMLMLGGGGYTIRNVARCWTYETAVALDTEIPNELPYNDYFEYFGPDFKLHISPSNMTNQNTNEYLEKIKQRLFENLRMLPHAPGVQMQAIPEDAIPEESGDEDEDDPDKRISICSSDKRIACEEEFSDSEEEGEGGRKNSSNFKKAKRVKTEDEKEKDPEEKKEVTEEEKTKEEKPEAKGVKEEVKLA

In general, IC50 refers to the concentration needed to halve the response being measured. As to `O=C(CCCCCCC(=O)Nc1cc2ncnc(Nc3cccc(Br)c3)c2s1)NO`, the IC50 in assay [1] was determined as 1740 nM; in assay [2], 33.8 nM; in assay [3], 54.5 nM; in assay [4] it was 16.9 nM; in assay [5] it was 1750 nM.
As for `O=C(CCCCCCC(=O)Nc1cc2ncnc(Nc3cccc(Cl)c3)c2s1)NO`, the IC50 in assay [1] was 1820 nM; in assay [2] it was 45.5 nM; in assay [3], 53.8 nM; in assay [4], 33.8 nM; in assay [5], 1520 nM.
The like results for `CCc1cccc(Nc2ncnc3cc(NC(=O)CCCCCCC(=O)NO)sc23)c1` were, in that order, 1440 nM, 147 nM, 116 nM, 58.5 nM and 1570 nM.
`COc1cccc(Nc2ncnc3cc(NC(=O)CCCCCCC(=O)NO)sc23)c1`: the IC50 was determined as 1330 nM in assay [1]; 21.4 nM in assay [2]; 62.2 nM in assay [3]; 20.9 nM in assay [4]; 1260 nM in assay [5]. The inhibition entry in assay [6] and in assay [7] was “Dose-dependent effect” throughout.
On to `COc1ccc(Nc2ncnc3cc(NC(=O)CCCCCCC(=O)NO)sc23)c(C)c1`, for which the IC50 in assay [1] was 2480 nM; in assay [2] it was 144 nM; in assay [3] it was 117 nM; in assay [4], 111 nM; in assay [5], 1980 nM.
On to `Cc1ccccc1Nc1ncnc2cc(NC(=O)CCCCCC(=O)NO)sc12`, for which the IC50 in assay [1] is 2560 nM; in assay [2] it was 98.8 nM; in assay [3], 138 nM; in assay [4], 87.6 nM; in assay [5] it was 1750 nM.
Regarding `O=C(CCCCCCC(=O)Nc1cc2ncnc(Nc3cccc(F)c3)c2s1)NO`, the IC50 in assay [1] turned out to be 1780 nM; in assay [2], 64.5 nM; in assay [3] it was 73.7 nM; in assay [4] it was 42.5 nM; in assay [5], 1630 nM.
For the molecule `N#Cc1cccc(Nc2ncnc3cc(NC(=O)CCCCCCC(=O)NO)sc23)c1`, the IC50 in assay [1] is 2090 nM; in assay [2] it was 19.8 nM; in assay [3], 45 nM; in assay [4] it was 20.1 nM; in assay [5] it was 1580 nM. Further, the inhibition result in assay [6] and in assay [7] was “Dose-dependent effect” in each case.
